# Reference: patent publication US4528188A, “Polysaccharide PS-A obtained from barrenwort deriving from plants belonging to the genus Epimedium, process for preparation thereof and phylactic and immunostimulating agents comprising said polysaccharide PS-A effective component” (priority 1981, dated 1985)
# What was measured:
# E. coli ML 4707 [1] = assay: Combination with antibiotics, normal state (Table 11); type: in vivo, E. coli; male mice of the ICR/JCL strain; conditions: only ampicillin, 12.5 mg/kg twice
# Method: A sample was administered subcutaneously to the back of each of 5-weeks-old male mice of the ICR/JCL strain having a body weight of about 25 g (each group consisting of 10 mice) once a day continuously for five days (5 times in total). PS was given to a control group. On the sixth day, 1.0×10^7 cells of E. coli ML 4707 was challenged thereto by the intraperitoneal injection. 12.5 mg/kg of ampicillin (Ampicillin sodium for injection; produced by Toyama Kagaku Co., Ltd., Japan) was administered to each mouse twice (directly after the intraperitoneal injection and 4 hours thereafter). Seven days after the challenge, viable count was examined.
# E. coli ML 4707 [2] = assay: Combination with an antibiotic in the immunosuppressive state (Table 12); type: in vivo, E. coli; female mice of the ICR/JCL strain; conditions: only ampicillin, 6.25 mg/kg s.c.; cyclophosphamide
# Method: A sample was administered subcutaneously to the back of each of 5-weeks-old female mice of the ICR/JCL strain having a body weight of about 25 g (each group consisting of 10 mice) once a day continuously for four days (4 times in total). PS was given to a control group. On the first day, 200 mg/kg of cyclophosphamide was injected to them by the intraperitoneal injection. On the next day of the final administration (i.e. on the fifth day), 1.0×10^6 cells of E. coli ML 4707 was challenged thereto by the intraperitoneal injection. One hour thereafter, 6.25 mg/kg of ampicillin (Ampicillin-sodium for injection; produced by Toyama Kagaku Co., Ltd., Japan) was administered to the back of each mouse by the subcutaneous injection. Seven days after the challenge, viable count was examined.
smiles,measurement,setting,value
CC1(C)S[C@@H]2[C@H](NC(=O)[C@H](N)c3ccccc3)C(=O)N2[C@H]1C(=O)O [ampicillin],Viable count,E. coli ML 4707 [1],20%
same,Viable count,E. coli ML 4707 [2],10%
